Experimental data from ChEMBL document CHEMBL1201862, “PubChem BioAssay data set” (2004).
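Cells were grown in 96-well plates and exposed to each compound for 48 hours at five concentrations; endpoints were interpolated linearly between bracketing concentrations, or set to the highest concentration if not reached. GI50 marks 50% less growth.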 The source made the active and inactive calls. Cut-off read from the data, not from the text of the source: active = GI50 up to about 1.1 µM and inactive = higher.

Columns and labels:
Test in all cases: DTP human tumour cell line panel, 48 h
A498 = system: A498
A549 = system: A549
EKVX = system: EKVX
HOP-62 = system: HOP-62
M14 = system: M14
MCF7 = system: MCF7
MDA-N = system: MDA-N
MOLT-4 = system: MOLT-4
NCI/ADR-RES = system: NCI/ADR-RES
OVCAR-4 = system: OVCAR-4
SF-539 = system: SF-539
SK-MEL-2 = system: SK-MEL-2
SK-MEL-5 = system: SK-MEL-5
SK-OV-3 = system: SK-OV-3
SN12C = system: SN12C
SNB-75 = system: SNB-75
U-251 = system: U-251
UACC-257 = system: UACC-257
UACC-62 = system: UACC-62
UO-31 = system: UO-31

Row | Structure (SMILES) | GI50 (A498) | GI50 (A549) | GI50 (EKVX) | GI50 (HOP-62) | GI50 (M14) | GI50 (MCF7) | GI50 (MDA-N) | GI50 (MOLT-4) | GI50 (NCI/ADR-RES) | GI50 (OVCAR-4) | GI50 (SF-539) | GI50 (SK-MEL-2) | GI50 (SK-MEL-5) | GI50 (SK-OV-3) | GI50 (SN12C) | GI50 (SNB-75) | GI50 (U-251) | GI50 (UACC-257) | GI50 (UACC-62) | GI50 (UO-31)
1 | COc1cc2nncc(SCc3ccc(Cl)c(Cl)c3)c2cc1OC | > 100 µM (inactive) | > 82.2 µM (inactive) | > 100 µM (inactive) | 32.3 µM (inactive) | > 35.6 µM (inactive) | 89.5 µM (inactive) | > 100 µM (inactive) | > 100 µM (inactive) | > 100 µM (inactive) | > 49.9 µM (inactive) | 35.6 µM (inactive) | > 100 µM (inactive) | > 100 µM (inactive) | > 71.3 µM (inactive) | > 100 µM (inactive) | 24.4 µM (inactive) | 50.5 µM (inactive) | > 56.4 µM (inactive) | 14 µM (inactive) | > 100 µM (inactive)
2 | CN(C)CCCNC(=O)c1cn2c(ccc3sc4ccccc4c(=O)c32)n1 | 14.6 µM (inactive) | 9.14 µM (inactive) | 14.4 µM (inactive) | 12.3 µM (inactive) | 12.9 µM (inactive) | 3.73 µM (inactive) | 5.09 µM (inactive) | 0.738 µM (active) | 2.95 µM (inactive) | 13.6 µM (inactive) | 16.7 µM (inactive) | 21.5 µM (inactive) | 1.55 µM (inactive) | 16.9 µM (inactive) | 4.56 µM (inactive) | 14.3 µM (inactive) | 1.63 µM (inactive) | 15.1 µM (inactive) | 17.9 µM (inactive) | 10.8 µM (inactive)
3 | COc1c(O)cc2c(c1O)C(=O)/C(=C/c1ccc(O)cc1)CO2 | 40 µM (inactive) | 31 µM (inactive) | 28.8 µM (inactive) | 33.1 µM (inactive) | 28.1 µM (inactive) | 34.7 µM (inactive) | 28.7 µM (inactive) | 36 µM (inactive) | 22.9 µM (inactive) | 20.1 µM (inactive) | 20.5 µM (inactive) | 27 µM (inactive) | 22 µM (inactive) | 24.7 µM (inactive) | 23 µM (inactive) | 21.2 µM (inactive) | 33.7 µM (inactive) | 31.9 µM (inactive) | 19.2 µM (inactive) | 23 µM (inactive)
4 | C/C(=C/CO[Si](C)(C)C(C)(C)C)C(=O)N(C)c1ccccc1I | 17.3 µM (inactive) | 16.6 µM (inactive) | 15 µM (inactive) | 18.4 µM (inactive) | 15.2 µM (inactive) | 16.9 µM (inactive) | 17.7 µM (inactive) | 18.2 µM (inactive) | 17.4 µM (inactive) | 15.3 µM (inactive) | 17.2 µM (inactive) | 15.7 µM (inactive) | 15.4 µM (inactive) | 18 µM (inactive) | 17.2 µM (inactive) | 19.1 µM (inactive) | 15.3 µM (inactive) | 13.3 µM (inactive) | 14.8 µM (inactive) | 14.8 µM (inactive)
5 | COC(=O)C1=C(O)C(C(=O)OC)C2CC(=O)CC1C2(C)C (stereo not given) | > 100 µM (inactive) | > 100 µM (inactive) | > 100 µM (inactive) | > 100 µM (inactive) | > 100 µM (inactive) | > 100 µM (inactive) | > 100 µM (inactive) | > 100 µM (inactive) | > 100 µM (inactive) | > 100 µM (inactive) | > 100 µM (inactive) | > 100 µM (inactive) | > 100 µM (inactive) | > 100 µM (inactive) | > 100 µM (inactive) | 88.9 µM (inactive) | > 100 µM (inactive) | > 100 µM (inactive) | > 100 µM (inactive) | > 100 µM (inactive)
6 | CCC1(C(=O)OC(C)(C)C)OC12C(C)CCCC2C (stereo not given) | 57.9 µM (inactive) | 34.8 µM (inactive) | 63.7 µM (inactive) | 48.9 µM (inactive) | 41.2 µM (inactive) | 24.3 µM (inactive) | 56.8 µM (inactive) | 18.7 µM (inactive) | > 100 µM (inactive) | 28.1 µM (inactive) | > 100 µM (inactive) | 44.8 µM (inactive) | 33.3 µM (inactive) | 73.6 µM (inactive) | 62.1 µM (inactive) | 32.9 µM (inactive) | 42.9 µM (inactive) | 31 µM (inactive) | 50.4 µM (inactive) | 48.5 µM (inactive)
